This note sets out measurements from PubChem BioAssay AID330 (DTP/NCI, 2004).

Several values for one entry are separate records, joined by “and”; a condition that tells them apart may be missing. Equal entries are not always repeated. Inconclusive results and toxic doses are left out.

The assay deals with P388 leukemia ip, CD2F1 mice, survival T/C. In words: NCI In Vivo Anticancer Drug Screen. Data for tumor model P388 Leukemia (intraperitoneal) in CD2F1 (CDF1) mice. Particulars: endpoint: median survival time, higher = longer survival. In short, it runs like this: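 Mice carrying the transplanted tumor received test compound or vehicle. Survival was recorded in each group, and the value is the treated-group measurement divided by that of the vehicle-treated control group.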

Setting [1] is: dose: 25.0 mg/kg/injection, schedule: Q01DX005 (ip), vehicle: saline with Tween-80.
The mark [2] stands for this setting: dose: 50.0 mg/kg/injection, schedule: Q01DX005 (ip), vehicle: saline with Tween-80.
The mark [3] stands for this setting: dose: 100.0 mg/kg/injection, schedule: Q01DX005 (ip), vehicle: saline with Tween-80.
Setting [4] is: dose: 50.0 mg/kg/injection, schedule: Q01DX009 (ip), vehicle: Klucel (hydroxypropylcellulose) (HPC).
Setting [5] is: dose: 100.0 mg/kg/injection, schedule: Q01DX009 (ip), vehicle: Klucel (hydroxypropylcellulose) (HPC).
[6] abbreviates: dose: 200.0 mg/kg/injection, schedule: Q01DX009 (ip), vehicle: Klucel (hydroxypropylcellulose) (HPC).
Where [7] appears, read: dose: 200.0 mg/kg/injection, schedule: Q01DX005 (ip), vehicle: saline with Tween-80.
[8] abbreviates: dose: 60.0 mg/kg/injection, schedule: Q01DX005 (ip), vehicle: saline with Tween-80.
Setting [9] is: dose: 120.0 mg/kg/injection, schedule: Q01DX005 (ip), vehicle: saline with Tween-80.
Where [10] appears, read: dose: 240.0 mg/kg/injection, schedule: Q01DX005 (ip), vehicle: saline with Tween-80.
Setting [11] is: dose: 50.0 mg/kg/injection, schedule: Q01DX009 (ip), vehicle: saline.
Where [12] appears, read: dose: 100.0 mg/kg/injection, schedule: Q01DX009 (ip), vehicle: saline.
[13] abbreviates: dose: 200.0 mg/kg/injection, schedule: Q01DX009 (ip), vehicle: saline.
Setting [14] is: dose: 100.0 mg/kg/injection, schedule: Q01DX009 (ip), vehicle: saline with Tween-80.
The mark [15] stands for this setting: dose: 50.0 mg/kg/injection, schedule: Q01DX009 (ip), vehicle: saline with Tween-80.
Setting [16] is: dose: 200.0 mg/kg/injection, schedule: Q01DX009 (ip), vehicle: saline with Tween-80.

With `C/C=C1/CN2C3C[C@H]1C(CO)(C(=O)OC)[C@H]2Cc1c3n(C)c2ccccc12` (stereo partly specified), the T/C is 100 % of control (dose: 10.0 mg/kg/injection, schedule: Q01DX009 (ip), vehicle: Klucel (hydroxypropylcellulose) (HPC)); 101 % of control (dose: 20.0 mg/kg/injection, schedule: Q01DX009 (ip), vehicle: Klucel (hydroxypropylcellulose) (HPC)); 104 % of control (dose: 40.0 mg/kg/injection, schedule: Q01DX009 (ip), vehicle: Klucel (hydroxypropylcellulose) (HPC)); 100 % of control (dose: 80.0 mg/kg/injection, schedule: Q01DX009 (ip), vehicle: Klucel (hydroxypropylcellulose) (HPC)); 94 % of control (dose: 160.0 mg/kg/injection, schedule: Q01DX009 (ip), vehicle: Klucel (hydroxypropylcellulose) (HPC)).
For the compound `C=CCN(C=O)CC(OCC)OCC`, the T/C is 100 % of control under setting [1], 97 % of control under setting [2] and 99 % of control under setting [3].
On to `c1cc(NNc2cccc(-c3nn[nH]n3)c2)cc(-c2nn[nH]n2)c1`, for which the T/C runs as follows: under setting [4], 95 % of control; under setting [5], 117 % of control; under setting [6], 113 % of control.
`Nc1ncnc2cc3cn[nH]c3cc12`: the T/C was 96 % of control (dose: 12.5 mg/kg/injection, schedule: Q01DX005 (ip), vehicle: saline with Tween-80); 95 % of control under setting [1]; 94 % of control and 97 % of control under setting [2]; 91 % of control under setting [3]; 100 % of control under setting [7].
As to `COc1nc(NC2OC(COC(C)=O)C(OC(C)=O)C(OC(C)=O)C2OC(C)=O)c(C(=O)CCl)c(=O)[nH]1` (stereo unspecified), the T/C is 93 % of control under setting [8], 90 % of control under setting [9] and 101 % of control under setting [10].
Turning to `O=C1CSC(c2ccccc2O)N1c1nc(-c2ccc(Cl)cc2)cs1` (stereo unspecified), the T/C is 100 % of control (dose: 100.0 mg/kg/injection, schedule: Q01DX001 (ip), vehicle: saline with Tween-80); 98 % of control (dose: 200.0 mg/kg/injection, schedule: Q01DX001 (ip), vehicle: saline with Tween-80); 87 % of control (dose: 400.0 mg/kg/injection, schedule: Q01DX001 (ip), vehicle: saline with Tween-80).
With `Cn1c(=O)c2c(N=NC(N)=S)c(O)[nH]c2n(C)c1=O`, the T/C was 100 % of control (dose: 100.0 mg/kg/injection, schedule: Q04DX003 (ip), vehicle: Klucel (hydroxypropylcellulose) (HPC)); 108 % of control (dose: 200.0 mg/kg/injection, schedule: Q04DX003 (ip), vehicle: Klucel (hydroxypropylcellulose) (HPC)); 96 % of control (dose: 400.0 mg/kg/injection, schedule: Q04DX003 (ip), vehicle: Klucel (hydroxypropylcellulose) (HPC)).
As to `Cc1ccc(-c2c([N+](=O)[O-])c3ccccn3c2[N+](=O)[O-])cc1`, the T/C reads like this: under setting [8], 92 % of control; under setting [9], 90 % of control; under setting [10], 99 % of control.
For the compound `NC(=O)c1cn[nH]c1N`, the T/C (dose: 25.0 mg/kg/injection, schedule: Q01DX009 (ip), vehicle: suspension in saline) is 118 % of control; the T/C under setting [11] is 90 % of control; the T/C (dose: 50.0 mg/kg/injection, schedule: Q01DX009 (ip), vehicle: suspension in saline) was 97 % of control; the T/C under setting [12] was 90 % of control; the T/C (dose: 100.0 mg/kg/injection, schedule: Q01DX009 (ip), vehicle: suspension in saline) was 104 % of control; the T/C under setting [13] is 87 % of control. Moreover, where the note is “dose: 200.0 mg/kg/injection, schedule: Q01DX009 (ip), vehicle: suspension in saline”, the T/C is 94 % of control.
Turning to `CCOC(=O)c1cnn(C)c1N`, the T/C reads like this: (dose: 66.7 mg/kg/injection, schedule: Q01DX009 (ip), vehicle: saline with Tween-80) 97 % of control; under setting [14], 110 % of control; (dose: 150.0 mg/kg/injection, schedule: Q01DX009 (ip), vehicle: saline with Tween-80) 105 % of control.
Take `O=C(/C=C/c1cccc([N+](=O)[O-])c1)c1ccccc1`: the T/C reads like this: under setting [15], 99 % of control; under setting [14], 92 % of control; under setting [16], 92 % of control; (dose: 400.0 mg/kg/injection, schedule: Q01DX009 (ip), vehicle: saline with Tween-80) 100 % of control.
On to `Oc1[nH]c(N=C2N=c3ccccc3=N2)c2ccccc12`, for which the T/C under setting [15] is 118 % of control, the T/C under setting [14] is 103 % of control and the T/C under setting [16] is 104 % of control.
On to `C/C=C(\NN=NC)c1ccccc1`, for which the T/C (dose: 200.0 mg/kg/injection, schedule: Q04DX002 (ip), vehicle: saline with Tween-80) was 166 % of control.
In the case of `COc1ccc(-c2cc3ccccc3c(=O)n2Cc2ccccc2)cc1`, the T/C by setting is: under setting [8], 100 % of control; under setting [9], 103 % of control; under setting [10], 94 % of control.
On to `CN1CCC2(CCNCC2)C1=O`, for which the T/C is, setting by setting: under setting [11], 86 % of control; under setting [12], 100 % of control; under setting [13], 95 % of control.
Take `COc1cc2c(cc1C(C)c1cc(C)c(OC)c(C)c1)OCO2` (stereo unspecified): the T/C was 100 % of control under setting [2], 106 % of control under setting [3] and 101 % of control under setting [7].
`O=C(NC1CCCCC1)C(O)C(O)C(O)C(O)CO` (stereo unspecified): the T/C is, setting by setting: (dose: 50.0 mg/kg/injection, schedule: Q01DX005 (ip), vehicle: Klucel (hydroxypropylcellulose) (HPC)) 107 % of control; (dose: 100.0 mg/kg/injection, schedule: Q01DX005 (ip), vehicle: Klucel (hydroxypropylcellulose) (HPC)) 107 % of control; (dose: 200.0 mg/kg/injection, schedule: Q01DX005 (ip), vehicle: Klucel (hydroxypropylcellulose) (HPC)) 104 % of control.
As for `Nc1nc(N)c2cc(Sc3cccc(C(F)(F)F)c3)ccc2n1`, the T/C is, setting by setting: under setting [14], 172 % of control; under setting [16], 94 % of control.
Consider `O=C1c2ccccc2C(=O)c2c(NCCCNCCO)ccc(NCCCNCCO)c21`, for which the T/C was 104 % of control (dose: 3.75 mg/kg/injection, schedule: Q01DX005 (ip), vehicle: other); 101 % of control (dose: 6.25 mg/kg/injection, schedule: Q01DX009 (ip), vehicle: water); 111 % of control (dose: 7.5 mg/kg/injection, schedule: Q01DX005 (ip), vehicle: other); 110 % of control (dose: 7.5 mg/kg/injection, schedule: Q01DX009 (ip), vehicle: water); 117 % of control (dose: 12.5 mg/kg/injection, schedule: Q01DX009 (ip), vehicle: water); 119 % of control (dose: 15.0 mg/kg/injection, schedule: Q01DX005 (ip), vehicle: other). The T/C is, setting by setting: (dose: 15.0 mg/kg/injection, schedule: Q01DX009 (ip), vehicle: water) 117 % of control; (dose: 30.0 mg/kg/injection, schedule: Q01DX005 (ip), vehicle: other) 120 % of control; (dose: 100.0 mg/kg/injection, schedule: Q01DX009 (ip), vehicle: other) 97 % of control; (dose: 100.0 mg/kg/injection, schedule: Q01DX009 (ip), vehicle: water) 99 % of control.
`CCCC(C)N(CC(=O)Nc1ccc(S(N)(=O)=O)cc1)C(C)=O` (stereo unspecified): the T/C was 100 % of control under setting [4], 107 % of control under setting [5] and 109 % of control under setting [6].
Turning to `O=C(Oc1ccccc1)c1cc(O)c(O)c(O)c1`, the T/C runs as follows: under setting [1], 100 % of control and 95 % of control; under setting [2], 100 % of control and 101 % of control; under setting [3], 99 % of control and 100 % of control; under setting [7], 101 % of control and 116 % of control; (dose: 400.0 mg/kg/injection, schedule: Q01DX005 (ip), vehicle: saline with Tween-80) 109 % of control.
Consider `CCCCCCCCSC(=O)n1cc(F)c(=O)[nH]c1=O`, for which the T/C runs as follows: (dose: 15.0 mg/kg/injection, schedule: Q01DX005 (ip), vehicle: saline with Tween-80) 103 % of control; (dose: 30.0 mg/kg/injection, schedule: Q01DX005 (ip), vehicle: saline with Tween-80) 120 % of control; under setting [8], 120 % of control.
